Reference: US9359322B2, “C-linked glucuronide of N-(4-hydroxybenzyl) retinone, analogs thereof, and methods of using the same to inhibit neoplastic cell growth” (Wisconsin Alumni Research Foundation, priority 2005, dated 2016)
Marks after values point to notes of the source that are not given here.

Experiments:
CYP26A1 mRNA = assay: Induction of CYP26A1 mRNA in liver (Q-PCR); type: in vivo, rat; settings: at sacrifice, retinoid-fed rats, 2 mmol/kg diet; FIG. 4
RARβ = biological target: T1, RARβ (Homo sapiens, UniProt P10826); assay: Nuclear retinoid receptor binding assay, competition with [3H]all-trans RA; settings: competition for [3H]atRA; present work
T1 sequence (P10826 1-455): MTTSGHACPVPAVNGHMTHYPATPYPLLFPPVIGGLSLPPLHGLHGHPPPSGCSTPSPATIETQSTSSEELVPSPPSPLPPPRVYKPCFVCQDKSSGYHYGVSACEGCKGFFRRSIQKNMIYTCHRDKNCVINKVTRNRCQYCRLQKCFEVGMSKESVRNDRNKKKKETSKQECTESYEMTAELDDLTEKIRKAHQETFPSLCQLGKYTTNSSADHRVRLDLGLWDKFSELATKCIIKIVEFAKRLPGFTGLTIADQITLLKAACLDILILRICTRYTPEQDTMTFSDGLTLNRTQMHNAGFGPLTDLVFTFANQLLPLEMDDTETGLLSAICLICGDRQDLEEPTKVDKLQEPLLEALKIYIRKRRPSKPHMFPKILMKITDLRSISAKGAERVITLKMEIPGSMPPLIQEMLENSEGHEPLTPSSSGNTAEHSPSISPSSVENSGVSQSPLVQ
Experimental: Nuclear Retinoid Receptor Binding Assay. Competition of 3 and 7 and 4-HBRCGlucose with [^3H]-all-trans-RA (4.2-4.6 nM) for binding to RARβ and RARγ and with [^3H]-9-cis RA (1.9 nM) for binding to RXRγ was determined using an in vitro ligand binding assay.^41, 42 [^3H]-all-trans-RA (40.5 Ci/mmole) or [^3H]-9-cis-RA (69.4 Ci/mmole) was added to receptor-containing extracts in the absence and presence of increasing concentrations of competing ligands at 4° C. for 3 hr. A hydroxylapatite (HAP) assay was used to separate ligand bound to receptor from that free in solution, and the radioactivity associated with the HAP pellet was measured by scintillation counting.

[1] = test system: DMBA-induced rat mammary tumor; assay: DMBA-induced rat mammary tumor model, retinoid-containing diets; type: in vivo
Experimental: Preliminary evaluation of the mammary tumor chemotherapeutic activity of 4-HBRCG (7) was conducted, and its toxicity profile was also assessed. As previously described,^7, 12 tumor-bearing female rats (treated ca. 50 days earlier with 7,12-dimethylbenz(a)anthracene [DMBA]) were fed the control or retinoid-containing diets (RA (2), 4-HPR (3) or 4-HBRCG (7)) at 2 mmole/kg diet for 22 days.
Animal Studies: Mammary tumors were induced by intragastric intubation of 50-day old female Sprague-Dawley rats (Harlan Industries, Indianapolis, Ind.) with a single dose of 15 mg DMBA in 1.0 ml of sesame oil per rat. The rats were then maintained on a powdered Teklad 22/5 rodent chow diet (W) 8640 (Harlan Industries, Indianapolis, Ind.), and allowed food and water ad libitum. Four months later, rats which had developed palpable tumors were randomly assigned to the experimental groups (4 rats/group). The retinoid-treated groups were fed diets supplemented with 2 mmol/kg diet of atRA, 4-HPR, or 4-HBRCG, respectively. The retinoids were added to the diet in a vehicle consisting of 25 ml of ethanol: tricaprylin (1:4 v/v) plus 2% (w/v) of α-tocopherol as previously described.^9 This vehicle was also added to the control diet. The additives were blended into the chow diets using a Hobart food mixer. The diets were fed in stainless steel feeders designed with food hoppers. The food was replaced weekly with freshly prepared diets. Food consumption was determined once weekly, and from that the average daily consumption/rat was estimated. These diets were continuously fed for 22 days. Animals were also weighted weekly and monitored for general health status and signs of possible toxicity due to treatment.
Baseline measurement of initial tumor sizes, numbers and rat body weights were determined immediately before commencement of treatments, and final measurements were recorded just prior to sacrifice of the animals. Animals were palpated for tumors twice weekly and tumor diameters were measured weekly by a micrometer caliper. Tumor volumes were calculated using the formula [V= 4/3 πr^3] where r is one-half the mean of the sum of the largest diameter and the axis at right angle to it. All tumors as well as lungs, liver, kidney and femur were excised at the end of the experiment for chemical and histopathological evaluation. Blood samples were also taken from each animal for determination of plasma retinol and triglyceride levels.

[2] = test system: MCF-7 human breast cancer cells; assay: Growth inhibition of MCF-7 human breast cancer cells; type: cell-based; settings: 10^−5 M, 8-day period; FIG. 5
Experimental: Inhibition of MCF-7 human breast cancer cell growth over an 8-day period was used as a means to assess the activity of 4-HBRCG and the analog 4-HBRCGlucose.
Growth inhibition of MCF-7 human breast cancer cells. MCF-7 cells were obtained from the American Type Culture Collection, Manassas, Va. They were maintained in DMEM medium supplemented with 4 g/L glucose, 3.7 g/L sodium bicarbonate and 10% heat-inactivated fetal calf serum. Cells were passaged into 12-well plates, cultured for 24 hours, after which time they were dosed with vehicle (0.2% ethanol) or retinoids; medium was changed and fresh vehicle or retinoids were added daily. Cells were harvested and the number of live cells was assessed using fluorescein diacetate, which yields a fluorescent product upon cleavage by metabolically active cells. Using fluorescent microscopy, at least 200 cells/well were counted with a hemacytometer.

[3] = Femur bone mineral content; type: in vivo, rat; settings: end of feeding study; FIG. 2B
From the text: Bone Mineral Content. The femur was disarticulated from the leg, and the adhering soft tissue was removed by dissection. Femurs were scanned using the Lunar PIXImus 2 system (Model X2608, General Electric using the LUNAR software version 1.45), and control measurements were made using the small animal quality control phantom. Femurs were scanned 5 times each with re-positioning at each measure. The average value of the bone mineral content (BMC) in grams for each animal is reported as one independent measure.

[4] = number of individual tumors, 2 mmol/kg diet, 22 days

CC1=C(/C=C/C(C)=C/C=C/C(C)=C/C(=O)Cc2ccc(CC3OC(C(=O)O)C(O)C(O)C3O)cc2)C(C)(C)CCC1 [4-HBRCG (7), 2,6-Anhydro-7-deoxy-7-[4-(retinoylmethyl)-phenyl]-L-glycero-L-gulo-heptinoic acid]
Induction of CYP26A1 mRNA in liver (CYP26A1 mRNA): did not induce these cytochrome p450 mRNAs | Times less potent than atRA in binding to RARβ (RARβ): 300 times | % Change in tumor volume from baseline ([1]; 2 mmol/kg diet for 22 days): −33 ^d % | Final tumor volume ([1]; 2 mmol/kg diet for 22 days, mean ± SEM): 0.08 ± 0.05 cm^3 | Initial tumor volumes ([1]; baseline before treatment, mean ± SEM): 0.12 ± 0.06 cm^3 | Complete regression (tumors that totally disappeared) [1, 4]: 2 | No effect [1, 4]: 2 | Partial regression (tumors with 25-75% decrease in volume) [1, 4]: 6 | New tumors ([1]; number of tumors, 2 mmol/kg diet, 22 days): 0 | Effect on number of live MCF-7 cells [2]: reduction in the number of live cells | Effect on femur bone mineral content vs control [3]: showed no such effect
